In ChEMBL document CHEMBL1201862, “PubChem BioAssay data set” (2004):
Calls of active or inactive are those of the source.

Tests used:
HEK293 [1] = assay: cells; format: functional, cell-based; details: Homo sapiens
[2] = target: T1, Nuclear receptor subfamily 0 group B member 1 (Homo sapiens, UniProt P51843); assay: Luminescence-based cell-based high throughput dose response assay for inhibitors of the orphan nuclear receptor subfamily 0, group B, member 1 (DAX1; NR0B1). [Related pubchem assays (depositor defined):AID504766, AID504790]; format: functional
T1 sequence (P51843 whole entry): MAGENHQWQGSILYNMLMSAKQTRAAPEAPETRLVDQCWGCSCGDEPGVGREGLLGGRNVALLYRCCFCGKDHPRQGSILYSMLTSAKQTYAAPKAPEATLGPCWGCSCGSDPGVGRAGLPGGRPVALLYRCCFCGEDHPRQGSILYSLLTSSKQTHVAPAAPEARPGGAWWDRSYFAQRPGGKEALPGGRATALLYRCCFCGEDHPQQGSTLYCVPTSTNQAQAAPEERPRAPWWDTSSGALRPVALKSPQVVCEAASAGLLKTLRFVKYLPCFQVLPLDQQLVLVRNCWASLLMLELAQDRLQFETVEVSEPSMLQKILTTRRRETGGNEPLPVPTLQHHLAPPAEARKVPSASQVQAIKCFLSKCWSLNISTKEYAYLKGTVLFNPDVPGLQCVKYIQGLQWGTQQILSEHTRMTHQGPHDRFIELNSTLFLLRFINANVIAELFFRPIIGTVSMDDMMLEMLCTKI

HEK293 [3] = assay: NOD2 signaling inhibitors in MDP-stimulated cells, cell-based, uHTS, luminescence (AID 2001); format: functional; details: Homo sapiens
HEK293 [4] = assay: cells; details: Homo sapiens
Tumor necrosis factor = Tumor necrosis factor (Homo sapiens, UniProt P01375); assay: TNFa-triggered NF-kB activation inhibitors, SAR follow-up, cell-based, revised (AID 2337); format: functional
Chain of Tumor necrosis factor (P01375 whole entry): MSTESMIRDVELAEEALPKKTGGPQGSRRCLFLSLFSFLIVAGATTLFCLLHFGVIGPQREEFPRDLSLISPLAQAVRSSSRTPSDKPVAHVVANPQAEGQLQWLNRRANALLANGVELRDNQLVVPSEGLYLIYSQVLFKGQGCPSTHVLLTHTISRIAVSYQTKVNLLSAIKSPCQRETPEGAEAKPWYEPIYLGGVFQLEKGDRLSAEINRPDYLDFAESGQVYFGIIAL

HEK293 [5] = assay: cells; format: functional, cell-based; details: Homo sapiens; remark: listed apart in the source
HEK293 [6] = assay: NOD1 signaling inhibitors, primary screen, cell-based, luminescence, uHTS (AID 1578); format: functional; details: Homo sapiens
HEK293 [7] = assay: cells; format: functional, cell-based; details: Homo sapiens; remark: listed apart in the source
[8] = target: T2, Nucleotide-binding oligomerization domain-containing protein 1 (Homo sapiens, UniProt Q9Y239); assay: NOD1 signaling inhibitors, SAR follow-up, revised (AID 2333); format: functional
T2 sequence (Q9Y239 whole entry): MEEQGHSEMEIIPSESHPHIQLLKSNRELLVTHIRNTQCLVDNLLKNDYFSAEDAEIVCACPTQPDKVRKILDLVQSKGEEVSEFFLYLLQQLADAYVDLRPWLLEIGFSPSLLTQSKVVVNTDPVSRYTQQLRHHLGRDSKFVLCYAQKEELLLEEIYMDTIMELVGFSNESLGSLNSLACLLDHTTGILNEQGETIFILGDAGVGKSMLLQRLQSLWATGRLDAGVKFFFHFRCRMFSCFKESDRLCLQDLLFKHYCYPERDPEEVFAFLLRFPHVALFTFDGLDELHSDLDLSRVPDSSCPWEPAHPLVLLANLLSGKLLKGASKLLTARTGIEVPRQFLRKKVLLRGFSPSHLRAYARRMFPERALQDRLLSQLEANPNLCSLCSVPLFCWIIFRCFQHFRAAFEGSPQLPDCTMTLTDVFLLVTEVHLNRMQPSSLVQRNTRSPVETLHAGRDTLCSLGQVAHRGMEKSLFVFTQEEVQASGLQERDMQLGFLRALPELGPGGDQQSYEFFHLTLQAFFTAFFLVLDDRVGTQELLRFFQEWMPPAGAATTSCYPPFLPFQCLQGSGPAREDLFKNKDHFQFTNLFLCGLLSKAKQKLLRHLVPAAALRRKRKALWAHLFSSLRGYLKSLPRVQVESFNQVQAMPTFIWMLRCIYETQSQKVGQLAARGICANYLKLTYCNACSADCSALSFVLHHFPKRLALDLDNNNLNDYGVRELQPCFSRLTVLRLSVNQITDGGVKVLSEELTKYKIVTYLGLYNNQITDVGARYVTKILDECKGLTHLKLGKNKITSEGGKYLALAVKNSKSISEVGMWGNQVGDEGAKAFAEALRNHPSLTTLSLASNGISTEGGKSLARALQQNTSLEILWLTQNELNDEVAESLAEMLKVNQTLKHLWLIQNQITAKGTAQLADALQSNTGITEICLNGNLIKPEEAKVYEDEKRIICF

[9] = target: T3, COUP transcription factor 2 (Homo sapiens, UniProt P24468); assay: Luminescence-based cell-based high throughput dose response assay to identify inhibitors of COUP-TFII (NR2F2).; format: functional;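 also: HEK293 cells transiently cotransfected with COUP-TFII expression vector and reporter; luciferase reporter luminescence driven by COUP-TFII from the pX2-168 reporter plasmid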
T3 sequence (P24468 whole entry): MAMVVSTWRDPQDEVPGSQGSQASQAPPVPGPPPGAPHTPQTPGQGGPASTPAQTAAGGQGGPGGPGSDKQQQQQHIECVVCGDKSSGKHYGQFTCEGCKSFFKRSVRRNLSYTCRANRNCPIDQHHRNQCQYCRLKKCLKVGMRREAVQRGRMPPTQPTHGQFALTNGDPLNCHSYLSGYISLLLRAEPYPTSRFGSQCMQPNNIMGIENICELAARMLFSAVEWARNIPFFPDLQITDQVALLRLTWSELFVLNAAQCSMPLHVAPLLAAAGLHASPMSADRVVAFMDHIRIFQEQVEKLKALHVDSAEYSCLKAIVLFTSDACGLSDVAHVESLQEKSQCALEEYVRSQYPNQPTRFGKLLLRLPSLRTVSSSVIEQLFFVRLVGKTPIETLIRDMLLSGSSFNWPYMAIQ

[10] = inhibitors of intracellular T. cruzi replication, confirmation, NIH3T3 host cells, beta-gal luminescence (AID 2044); format: functional, cell-based;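 also: intracellular parasites grown in NIH/3T3 mouse fibroblasts as host cells; luminescent beta-galactosidase reporter signal from transgenic T. cruzi replicating inside host cells; inhibitors lower the luminescence signal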
[11] = cytotoxicity toward NIH3T3 fibroblasts, dose response, counter-screen, cell-based, ATP luminescence, mouse fibroblasts (AID 2010); format: functional;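 also: cells exposed to compound for about 90 hours before reading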
[12] = target: T4, Short transient receptor potential channel 4 (Mus musculus, UniProt Q9QUQ5); assay: mouse TRPC4 channel inhibitors, dose response, cell-based, HEK293 TRPC4/mu-opioid, Fluo-4 calcium (AID 434942); format: functional;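 also: potency of inhibitors blocking the TRPC4 calcium response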
T4 sequence (Q9QUQ5 whole entry): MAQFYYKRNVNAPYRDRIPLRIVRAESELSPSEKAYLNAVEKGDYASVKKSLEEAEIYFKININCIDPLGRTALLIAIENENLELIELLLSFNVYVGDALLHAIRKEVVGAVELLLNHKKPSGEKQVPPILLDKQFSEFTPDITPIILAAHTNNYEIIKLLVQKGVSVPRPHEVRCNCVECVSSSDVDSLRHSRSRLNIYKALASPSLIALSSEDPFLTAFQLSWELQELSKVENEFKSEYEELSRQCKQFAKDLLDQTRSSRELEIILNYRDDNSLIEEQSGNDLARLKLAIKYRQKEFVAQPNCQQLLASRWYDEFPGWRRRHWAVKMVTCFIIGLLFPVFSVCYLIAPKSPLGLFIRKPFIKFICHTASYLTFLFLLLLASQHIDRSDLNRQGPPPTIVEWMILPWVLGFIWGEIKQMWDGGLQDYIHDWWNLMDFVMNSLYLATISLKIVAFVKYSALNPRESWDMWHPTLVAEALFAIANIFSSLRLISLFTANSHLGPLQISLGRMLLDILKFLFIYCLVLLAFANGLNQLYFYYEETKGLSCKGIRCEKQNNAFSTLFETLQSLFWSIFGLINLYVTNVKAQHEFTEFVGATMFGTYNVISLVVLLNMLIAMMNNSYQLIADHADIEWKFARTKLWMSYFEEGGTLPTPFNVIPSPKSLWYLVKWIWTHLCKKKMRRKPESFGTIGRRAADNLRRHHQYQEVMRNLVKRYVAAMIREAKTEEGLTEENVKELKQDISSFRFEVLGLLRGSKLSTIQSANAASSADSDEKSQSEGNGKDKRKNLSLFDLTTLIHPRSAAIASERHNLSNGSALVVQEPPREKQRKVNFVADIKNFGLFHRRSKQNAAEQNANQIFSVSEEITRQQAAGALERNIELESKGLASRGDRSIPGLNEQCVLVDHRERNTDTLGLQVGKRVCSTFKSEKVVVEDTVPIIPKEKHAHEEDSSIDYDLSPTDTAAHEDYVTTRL

HeLa = assay: HeLa cell cytotoxicity, dose response, cytotoxicity control for MITF activator project, CellTiter-Glo luminescence, cherry-pick samples (AID 540259); format: functional, cell-based; details: Homo sapiens
[13] = target: T5, Heat shock factor protein 1 (Mus musculus, UniProt P38532); assay: HSF1 potentiators in luciferase reporter cells, confirmation, cell-based, NIH3T3, luminescence, dose retest (AID 435004); format: functional;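 also: stress induced by proteasome inhibitor MG132 added 30 min after compound; luciferase reporter driven by HSF1 response element in NIH3T3 cells; actives raise luminescence as potentiators of the MG132 stress response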
T5 sequence (P38532 whole entry): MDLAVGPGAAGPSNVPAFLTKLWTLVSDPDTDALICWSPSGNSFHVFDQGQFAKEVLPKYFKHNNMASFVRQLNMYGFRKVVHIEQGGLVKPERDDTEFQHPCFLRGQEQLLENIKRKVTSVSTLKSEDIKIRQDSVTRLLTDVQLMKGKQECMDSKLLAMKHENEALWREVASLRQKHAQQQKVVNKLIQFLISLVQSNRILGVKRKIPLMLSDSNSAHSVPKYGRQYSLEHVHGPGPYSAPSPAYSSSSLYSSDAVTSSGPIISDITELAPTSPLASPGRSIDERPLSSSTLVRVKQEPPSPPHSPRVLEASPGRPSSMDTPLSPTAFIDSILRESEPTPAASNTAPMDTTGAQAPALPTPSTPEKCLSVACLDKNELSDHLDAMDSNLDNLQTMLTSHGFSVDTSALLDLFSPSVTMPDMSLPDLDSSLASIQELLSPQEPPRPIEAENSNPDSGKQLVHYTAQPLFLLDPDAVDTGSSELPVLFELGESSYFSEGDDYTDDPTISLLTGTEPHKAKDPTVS

Vero [14] = assay: cells; format: functional, cell-based; details: Chlorocebus sabaeus
[15] = Luminescence Cell-Based Dose Retest to Confirm Inhibitors of Cancer Stem Cells. [Related pubchem assays (depositor defined):AID2717, AID2721]; format: functional; details: Homo sapiens
Vero [16] = assay: cells; format: functional; details: Chlorocebus sabaeus
Cytochrome P450 2D6 = Cytochrome P450 2D6 (Homo sapiens, UniProt P10635);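 also: CYP2D6 member of a cytochrome P450 panel assay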
Chain of Cytochrome P450 2D6 (P10635 whole entry): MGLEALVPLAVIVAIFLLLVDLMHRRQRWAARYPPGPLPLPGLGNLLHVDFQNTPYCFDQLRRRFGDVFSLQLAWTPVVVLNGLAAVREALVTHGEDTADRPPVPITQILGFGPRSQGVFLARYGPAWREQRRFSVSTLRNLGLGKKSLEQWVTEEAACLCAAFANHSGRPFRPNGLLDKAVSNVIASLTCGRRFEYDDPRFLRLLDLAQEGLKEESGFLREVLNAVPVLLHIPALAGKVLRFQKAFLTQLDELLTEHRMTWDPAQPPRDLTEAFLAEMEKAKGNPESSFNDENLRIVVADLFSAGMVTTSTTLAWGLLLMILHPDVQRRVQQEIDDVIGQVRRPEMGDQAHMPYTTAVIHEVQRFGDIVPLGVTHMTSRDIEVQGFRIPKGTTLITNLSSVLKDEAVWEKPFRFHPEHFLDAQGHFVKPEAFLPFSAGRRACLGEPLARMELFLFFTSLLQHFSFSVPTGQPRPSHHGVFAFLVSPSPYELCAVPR

Cytochrome P450 2C9 = Cytochrome P450 2C9 (Homo sapiens, UniProt P11712)
Chain of Cytochrome P450 2C9 (P11712 whole entry): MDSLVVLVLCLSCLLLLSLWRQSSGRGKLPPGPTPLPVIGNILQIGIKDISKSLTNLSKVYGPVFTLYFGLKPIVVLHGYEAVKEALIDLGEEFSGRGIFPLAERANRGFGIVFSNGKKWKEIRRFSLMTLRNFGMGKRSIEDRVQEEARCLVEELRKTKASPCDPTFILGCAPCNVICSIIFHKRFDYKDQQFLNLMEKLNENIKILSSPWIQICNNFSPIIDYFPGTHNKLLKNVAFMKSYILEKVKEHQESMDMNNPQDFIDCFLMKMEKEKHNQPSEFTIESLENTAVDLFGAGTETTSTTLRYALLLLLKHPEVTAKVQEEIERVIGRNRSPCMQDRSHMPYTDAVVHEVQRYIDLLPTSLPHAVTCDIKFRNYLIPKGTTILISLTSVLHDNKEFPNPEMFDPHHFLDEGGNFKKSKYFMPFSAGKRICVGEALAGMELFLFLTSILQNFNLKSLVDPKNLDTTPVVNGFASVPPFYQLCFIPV

Cytochrome P450 1A2 = target: T6, Cytochrome P450 1A2 (Homo sapiens, UniProt P05177);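 also: PubChem cytochrome P450 panel assay, CYP1A2 panel member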
T6 sequence (P05177 whole entry): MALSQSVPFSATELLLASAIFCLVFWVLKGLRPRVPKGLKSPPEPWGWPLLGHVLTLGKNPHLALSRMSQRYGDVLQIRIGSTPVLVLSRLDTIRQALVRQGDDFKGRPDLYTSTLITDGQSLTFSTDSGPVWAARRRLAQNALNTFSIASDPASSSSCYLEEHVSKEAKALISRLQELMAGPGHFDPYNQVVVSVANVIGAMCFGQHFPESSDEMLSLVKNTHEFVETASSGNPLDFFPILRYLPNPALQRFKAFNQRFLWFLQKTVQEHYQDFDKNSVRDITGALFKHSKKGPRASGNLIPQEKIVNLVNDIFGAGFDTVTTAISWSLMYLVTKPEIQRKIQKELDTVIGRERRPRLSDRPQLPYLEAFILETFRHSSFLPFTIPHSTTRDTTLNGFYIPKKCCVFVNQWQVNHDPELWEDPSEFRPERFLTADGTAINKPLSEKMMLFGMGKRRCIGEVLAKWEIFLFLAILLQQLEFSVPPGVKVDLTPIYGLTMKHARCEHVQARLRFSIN

## CCn1cc(/C=C/C(=O)c2ccc(O)cc2)c(C)n1
HEK293 [1]
  IC50: > 67.5 µM (inactive)
[2]
  IC50: > 67.5 µM (inactive)

## Cc1oc(-c2cccc3ccccc23)nc1CN1CCN(c2ncnc3ccccc23)CC1
HEK293 [3]
  IC50: 3.28 µM (active)
HEK293 [4]
  IC50: > 20 µM (inactive)
Tumor necrosis factor
  IC50: > 20 µM (inactive)
HEK293 [5]
  IC50: 6.63 µM (active)
HEK293 [6]
  EC50: 7.79 µM (active)
HEK293 [7]
  IC50: 4.08 µM (active)
[8]
  IC50: > 20 µM (inactive)

## N=c1c2c(n(Cc3ccc(Cl)cc3)c3c1CCC3)CCC2
[9]
  IC50: 9.25 µM (active)
HEK293 [3]
  IC50: 15.4 µM (inactive)
[10]
  EC50: 0.443 µM (active)
HEK293 [5]
  IC50: > 20 µM (inactive)
[11]
  EC50: > 60 µM (not active)
[12]
  EC50: 7.5 µM (active)
HEK293 [6]
  EC50: 10.2 µM (active)
HEK293 [7]
  IC50: 11.8 µM (active)

## CC1CCN(C(=O)c2cc(-c3ccccc3O)on2)CC1
HeLa
  AC50: 129 µM (active)

## COc1ccc(/C=C/C(=O)c2ccc(NS(=O)(=O)c3ccc(C)cc3)cc2)cc1O
[13]
  EC50: 32.2 µM (active)
Vero [14]
  IC50: > 25 µM (active)
[15]
  AC50: 2.69 µM (active)
Vero [16]
  CC50: 17.9 µM (active)

## CCS(=O)(=O)N1CCN(c2nc(-c3ccccc3)cs2)CC1
HeLa
  AC50: 61.6 µM (active)

## COC(=O)C/C=C\[C@@H](C)[C@@H](/C=N\OC[C@@H](O)COCc1ccco1)OC
Cytochrome P450 2D6
  AC50: inconclusive

## COc1cc(C(=O)/C=C/c2cccnc2)ccc1O
Vero [14]
  IC50: > 25 µM (active)
Vero [16]
  CC50: 21.2 µM (active)

## COc1ccc(-n2nnnc2/C=C\Nc2ccccc2C(=O)c2ccccc2)cc1
Cytochrome P450 2D6
  AC50: inconclusive
Cytochrome P450 2C9
  AC50: inconclusive
Cytochrome P450 1A2
  AC50: 22.4 µM (inconclusive)

## COc1ccc(C(=O)Nc2nncs2)cc1S(=O)(=O)N1CC(c2ccccc2)CC1=O (stereo not drawn)
HEK293 [1]
  IC50: > 67.5 µM (inactive)
[2]
  IC50: > 67.5 µM (inactive)

## CC[C@H]1CN(C)[C@H]2Cc3c([nH]c4ccccc34)C(=O)C[C@H]1[C@H]2C(=O)OC
Cytochrome P450 2D6
  AC50: inconclusive

## CCN(CC)C(=O)OCc1c(-c2ccccc2)ncc2ccccc12
HeLa
  AC50: 110 µM (active)
